Laboratory results: US12590071B2, “Hydrazone derivative in which terminal amine group is substituted with aryl group or heteroaryl group, and use thereof” (KOREA INSTITUTE OF SCIENCE AND TECHNOLOGY, priority 2018, dated 2026)

Key:
[1] = Liver microsomal stability (rat); assay type: in vitro ADME; settings: amount of substrate remaining; 1 μM, 0.25 mg/mL microsomes, 37° C., 30 minutes
Outline: (§1)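 Compound at 1 μM with microsomes (0.25 mg/mL each species) in 0.1 M phosphate buffer pH 7.4, preincubated 5 min at 37 °C, then 30 min at 37 °C after NADPH-generating system addition. Quenched with acetonitrile plus internal standard; remaining substrate measured by LC-MS/MS.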

[2] = biological target: T1, tau protein (Homo sapiens, UniProt P10636); test: Tau protein aggregation inhibition in tau-BiFC cell model; assay type: cell-based; settings: tau-BiFC cells treated together with Forskolin, 48 hours
T1 construct: expressed in transfected cells
T1 sequence (P10636 2-441 isoform P10636-8 limits assumed): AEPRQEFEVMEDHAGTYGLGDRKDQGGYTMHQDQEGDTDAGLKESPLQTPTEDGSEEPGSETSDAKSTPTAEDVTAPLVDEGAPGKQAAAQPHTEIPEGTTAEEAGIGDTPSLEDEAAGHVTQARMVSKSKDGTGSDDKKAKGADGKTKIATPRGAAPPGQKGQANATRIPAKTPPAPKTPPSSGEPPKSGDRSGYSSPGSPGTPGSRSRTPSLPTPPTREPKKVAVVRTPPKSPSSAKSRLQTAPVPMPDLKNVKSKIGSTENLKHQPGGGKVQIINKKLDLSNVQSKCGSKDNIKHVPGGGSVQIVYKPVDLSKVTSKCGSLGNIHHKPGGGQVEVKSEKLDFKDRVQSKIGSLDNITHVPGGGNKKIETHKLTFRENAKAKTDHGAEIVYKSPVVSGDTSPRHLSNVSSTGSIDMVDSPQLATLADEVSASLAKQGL
Outline: (§2)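 Tau-BiFC cells co-treated 48 h with Forskolin ([…]) and compound at 0.03–30 μM. BiFC fluorescence quantified by imaging, IC50 by nonlinear regression; cytotoxicity as Hoechst-stained nuclei count relative to Forskolin-only wells (100% survival).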

[3] = tested on: Tau-BiFC cells; test: Cytotoxicity (cell survival rate) in tau-BiFC cells; settings: group treated with Forskolin alone = 100%
Outline: as §2

[4] = Liver microsomal stability (dog); assay type: in vitro ADME; settings: amount of substrate remaining; 1 μM, 0.25 mg/mL microsomes, 37° C., 30 minutes
Outline: as §1

[5] = Liver microsomal stability (mouse); assay type: in vitro ADME; settings: amount of substrate remaining; 1 μM, 0.25 mg/mL microsomes, 37° C., 30 minutes
Outline: as §1

SMILES	liver microsomal stability, Rat (%) [1] [%]	IC50 [2] [nM]	Cell survival rate (% @ 10 μM) [3] [%]	liver microsomal stability, Dog (%) [4] [%]	liver microsomal stability, Mouse (%) [5] [%]
N#CC(C#N)=NNc1ccc(-c2ncccn2)cc1 [Compound 1, (4-(pyrimidin-2-yl)phenyl)carbonohydrazonoyl dicyanide]	28.3	490	74	5.7	86.1
N#CC(C#N)=NNc1ccc(-c2ncc(F)cn2)cc1 [Compound 2, (4-(5-fluoropyrimidin-2-yl)phenyl)carbonohydrazonoyl dicyanide]	97.2	1300	59	92.1	6.4
Cc1ncc(-c2ccc(NN=C(C#N)C#N)cc2)s1 [Compound 11, (4-(2-methylthiazol-5-yl)phenyl)carbonohydrazonoyl dicyanide]	49.6	50	146.2	79.6	65.6
N#CC(C#N)=NNc1ccc(-c2cnc3ccnn3c2)cc1 [Compound 50, (4-(pyrazolo[1,5-a]pyrimidin-6-yl)phenyl)carbonohydrazonoyl dicyanide]	85.7	730	76	88.9	89.5
Cc1cnc(C(=O)Nc2nc3ccc(NN=C(C#N)C#N)cc3s2)cn1 [Compound 93, (2-(5-methylpyrazine-2-carboxamido)benzo[d]thiazol-6-yl)carbonohydrazonoyl dicyanide]	63.3	60	129.2	60.4	37.3
